Experimental data as given in patent US5593994A, “Prostaglandin synthase inhibitors” (The DuPont Merck Pharmaceutical Company, priority 1994, dated 1997).

Key:
PGHS 2 = target: T1, PGHS 2 (Homo sapiens, UniProt P35354); assay: Prostaglandin G/H Synthase Inhibition Assay (PGHS 2); format: biochemical; conditions: Table A; 100 μM arachidonate; 2 min preincubation; read-out: IC50 (PGHS2)
T1 sequence (P35354 18-604): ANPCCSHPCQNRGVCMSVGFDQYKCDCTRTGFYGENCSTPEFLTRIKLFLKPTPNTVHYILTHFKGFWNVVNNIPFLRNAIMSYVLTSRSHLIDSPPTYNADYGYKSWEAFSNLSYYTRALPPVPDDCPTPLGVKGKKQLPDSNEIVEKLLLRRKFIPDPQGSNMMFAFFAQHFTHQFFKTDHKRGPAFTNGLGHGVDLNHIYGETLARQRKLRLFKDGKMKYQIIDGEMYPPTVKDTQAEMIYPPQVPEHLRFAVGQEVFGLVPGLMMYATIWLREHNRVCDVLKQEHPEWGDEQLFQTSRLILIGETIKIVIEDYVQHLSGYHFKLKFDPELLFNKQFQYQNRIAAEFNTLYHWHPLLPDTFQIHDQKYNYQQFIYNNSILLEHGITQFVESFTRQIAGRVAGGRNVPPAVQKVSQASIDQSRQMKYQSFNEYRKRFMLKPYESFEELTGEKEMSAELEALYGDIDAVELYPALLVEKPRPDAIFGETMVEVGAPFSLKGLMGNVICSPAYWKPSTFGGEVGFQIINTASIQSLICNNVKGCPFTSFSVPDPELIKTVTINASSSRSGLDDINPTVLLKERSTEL
Experimental: Prostaglandin G/H synthase (cyclooxygenase, PGHS, Cox) activity was determined spectrophotometrically essentially as described by Kulmacz et al (reference). […] The assay was adapted to a 96 well microtiter dish format as described below. […] The reaction plate was immediately placed in a microtiter reader and readings made at 610 nm for 1.5 min at 3 sec intervals. Reaction rates were calculated from the slope of the linear portion of the absorbance versus time curve. Rates for control samples lacking added inhibitors were used to calculate the percent inhibition of each test compound.
The ratio PGHS 1 IC50 /PGHS 2 IC50 is referred to as the selectivity ratio.

[1] = tested on: PGE2 production in human monocytes; assay: Cellular Assay: inhibition of PGE2 production in LPS-stimulated human peripheral blood monocytes; format: cell-based; conditions: Monocyte, Table B, LPS 1 μg/ml, 17.5 hours
Experimental: Human peripheral blood monocytes were obtained from normal donor blood by leukophoresis and isolated by elutriation. Monocytes were suspending in RPMI medium at 2×10^6 cells/ml, and plated at 200 μL/well in 96 well microtiter plates. Test compounds were added to the cells at appropriate concentration in DMSO such that the final DMSO concentration was 0.5% in the medium. Cells and compound or DMSO alone were incubated for 1 hour at 37° C. at which time cells were stimulated with 1 μg/ml LPS (Lipopolysaccharide, Salmonella typehrium, 5 mg/ml in 0.1% aqueous TEA) to induce PGHS 2 enzyme activity and prostaglandin production.

prostaglandin synthesis = conditions: in vivo; cited from earlier work
[2] = tested on: both isoenzymes (prostaglandin G/H synthase, Cox 1 and Cox 2); conditions: cited from earlier work
Cox-2 = conditions: cited from earlier work

| SMILES | IC50 (PGHS 2) [µM] | also measured |
| --- | --- | --- |
| COc1cccc(-c2ccccc2-c2ccc(S(C)(=O)=O)cc2)c1 [Example 4] | 10 to 50 | IC50 [1]: 0.051 to 0.1 µM |
| CS(=O)(=O)c1ccc(-c2ccccc2Oc2ccccc2)cc1 [Example 144, 1-Phenoxy-2-(4'-methylsulfonylphenyl)benzene] | < 10 | IC50 [1]: 0.051 to 0.1 µM |
| CS(=O)(=O)c1ccc(-c2cc3ccccc3cc2-c2ccccc2)cc1 [Example 401, 2-(4-methylsulfonylphenyl)-3-phenylnaphthalene] | 10 to 50 |  |
| CS(=O)(=O)c1ccc(-c2ccccc2N2CCCCC2)cc1 [Example 151, 1-[2-(4-methylsulfonylphenyl)phenyl]piperidine] | 10 to 50 |  |
| COc1cccc2cc(-c3ccccc3-c3ccc(S(C)(=O)=O)cc3)ccc12 [Example 50] | 10 to 50 |  |
| CS(=O)(=O)c1ccc(-c2ccccc2C2CCCCC2)cc1 [Example 71] | 10 to 50 |  |
| CC(=O)c1ccc(-c2ccc(F)cc2)c(-c2ccc(S(C)(=O)=O)cc2)c1 [Example 93] | 10 to 50 |  |
| CS(=O)(=O)c1ccc(-c2ccccc2-c2ccc3sccc3c2)cc1 [Example 47] | 10 to 50 |  |
| CS(=O)(=O)c1ccc(-c2ccccc2-n2cccc2)cc1 [Example 153, 1-[2-(4'-methylsulfonylphenyl)phenyl]pyrrole] | 50 to 300 |  |
| COc1ccc(-c2ccccc2-c2ccc(S(C)(=O)=O)cc2)cc1 [Example 5] | < 10 | IC50 [1]: 0.01 to 0.05 µM |
| CS(=O)(=O)c1ccc(-c2ccccc2-c2ccc3ccccc3c2)cc1 [Example 49] | 10 to 50 | IC50 [1]: 0.051 to 0.1 µM |
| CS(=O)(=O)Nc1ccc([N+](=O)[O-])cc1OC1CCCCC1 [NS-398] |  | gastric lesions (prostaglandin synthesis): nor produce gastic lesions; gastric prostaglandin synthesis (prostaglandin synthesis): did not block gastric prostaglandin synthesis; mode of inhibition [2]: competitive toward both isoenzymes; time-dependence of inhibition (Cox-2; Cox-2, longer exposure): selective time-dependence against Cox-2; tightness / reversibility of binding inhibition (Cox-2; reversed only following enzyme denaturation and organic extraction): extremely tight binding inhibition |
| CS(=O)(=O)c1ccc(-c2ccccc2Oc2ccc(F)cc2)cc1 [Example 141] | < 10 |  |
| COc1ccc(-c2ncccc2-c2ccc(S(C)(=O)=O)cc2)cc1 [Example 412] | 10 to 50 |  |
| CS(=O)(=O)c1ccc(-c2ccccc2-c2ccccc2)cc1 [Example 1] | 10 to 50 |  |
| COc1ccc(-c2ccccc2-c2ccc(S(C)(=O)=O)cc2)cc1OC [Example 6] | 50 to 300 |  |
| CS(=O)(=O)c1ccc(-c2ccccc2OCc2ccccc2)cc1 [Example 145] | 50 to 300 |  |
| CS(=O)(=O)c1ccc(-c2ccccc2-c2ccc(N)cc2)cc1 [Example 16] | 50 to 300 |  |
| CS(=O)(=O)c1ccc(-c2cc(N)ccc2-c2ccc(F)cc2)cc1 [Example 78] | 50 to 300 |  |
| CS(=O)(=O)c1ccc(-c2ccccc2-c2ccc(CO)cc2)cc1 [Example 43] | 50 to 300 |  |

| SMILES | IC50 (PGHS 2) [µM] | also measured |
| --- | --- | --- |
| CS(=O)(=O)c1ccc(-c2ccccc2-c2cnc3ccccc3c2)cc1 [Example 53] | 50 to 300 |  |
| CS(=O)(=O)c1ccc(-c2ccccc2-c2ccccc2)c(Cl)c1 [Example 305] | 50 to 300 |  |
| CS(=O)(=O)c1ccc(-c2ccccc2-c2cccnc2)cc1 [Example 51] | 50 to 300 |  |
| CS(=O)(=O)c1ccc(-c2ccccc2OC2CCCCC2)cc1 [Example 143] | < 10 |  |
| CS(=O)(=O)c1ccc(-c2ccccc2-c2ccc(F)cc2)cc1 [Example 2] |  | IC50 [1]: 0.01 to 0.05 µM |
| Cc1ccc(-c2ccccc2-c2ccc(S(C)(=O)=O)cc2)cc1 [Example 3] | 10 to 50 |  |
| NS(=O)(=O)c1ccc(-c2ccccc2-c2ccccc2)cc1 [Example 312, 2-(4-aminosulfonylphenyl)-1-biphenyl] | < 10 |  |
| CS(=O)(=O)c1ccc(-c2ccccc2-c2cc3ccccc3s2)cc1 [Example 48] | < 10 | IC50 [1]: 0.01 to 0.05 µM |
| COCc1ccc(-c2ccccc2-c2ccc(S(C)(=O)=O)cc2)cc1 [Example 42] | < 10 |  |
| CS(=O)(=O)c1ccc(-c2cccnc2-c2ccc(F)cc2)cc1 [Example 411] | 10 to 50 |  |
| CN(C)c1ccc(-c2ccccc2-c2ccc(S(C)(=O)=O)cc2)cc1 [Example 20] | 10 to 50 | IC50 [1]: 0.01 to 0.05 µM |
| CS(=O)(=O)c1ccc(-c2ccccc2C2=CCCCC2)cc1 [Example 70, 1-Cyclohexene-2-(4'-methylsulfonylphenyl)benzene] | 10 to 50 |  |
| CS(=O)(=O)c1ccc(-c2ccc([N+](=O)[O-])cc2-c2ccc(F)cc2)cc1 [Example 81] | 10 to 50 | IC50 [1]: 0.051 to 0.1 µM |
| CS(=O)(=O)c1ccc(-c2ccc(N)cc2-c2ccc(F)cc2)cc1 [Example 79] | 50 to 300 |  |
| CS(=O)(=O)c1ccc(-c2cc([N+](=O)[O-])ccc2-c2ccc(F)cc2)cc1 [Example 80] | 10 to 50 |  |
| CS(=O)(=O)c1ccc(-c2ccccc2-c2ccc3ccccc3n2)cc1 [Example 52] | 50 to 300 |  |
| CS(=O)(=O)c1ccc(-c2ccccc2-c2ccc(C=O)cc2)cc1 [Example 41] | 10 to 50 | IC50 [1]: 0.051 to 0.1 µM |
| CS(=O)(=O)c1ccc(-c2cc(O)ccc2-c2ccccc2)cc1 [Example 87, 3-(4'-methylsulfonylphenyl)-4-phenylphenol] | 50 to 300 |  |
| CS(=O)(=O)c1ccc(-c2ccccc2C#Cc2ccccc2)cc1 [Example 152] | < 10 |  |
